From patent US11571416B2, “Amodiaquine analogs and methods of uses thereof” (priority 2017, dated 2023)

How the values were obtained:
[1] = test system: EBOV-GFP (recombinant Ebolavirus encoding a GFP reporter gene); assay: microbe, parasite or virus in culture; type: cell-based; settings: for IC50: Orthoebolavirus
[2] = Cytotoxicity, CellTiter-Glo Luminescent Cell Viability Assay; settings: human, Huh7 cells

Compound | antiviral activity / potency in words [1] | IC50 ([1]; Huh-7, 24 h) | Selectivity index [1] | IC50 ([1]; Huh-7) | CC50 at 24 h [2] | fold potency relative to amodiaquine [1]
C#CCN(CC#C)Cc1cc(Nc2ccnc3cc(Cl)ccc23)ccc1O [Compound 1, 4-(7-chloroquinolin-4-ylamino)-2-bis(2-propyne-1-yl)aminomethylphenol] | reduced antiviral activity | 5780 ± 1490 nM |  |  |  | 
Oc1ccc(Nc2ccnc3cc(Cl)ccc23)cc1CN1CCCC(O)C1 (centres unmarked) [Compound 19, 4-(7-chloroquinolin-4-ylamino)-2-(3-hydroxy-1-piperidinyl)methylphenol] | did not decrease potency | 1800 ± 280 nM |  |  |  | 
CCCN(CC)Cc1cc(Nc2ccnc3cc(I)ccc23)ccc1O [Compound 40, 4-(7-iodoquinolin-4-ylamino)-2-ethylpropylaminomethylphenol] |  | 360 ± 40 nM | >278 | 360 nM | > 100000 nM | 
CN1CCN(Cc2cc(Nc3ccnc4cc(Cl)ccc34)ccc2O)CC1 [Compound 13, 4-(7-chloroquinolin-4-ylamino)-2-(4-methyl-1-piperazinyl)methylphenol] | did not decrease potency | 1680 ± 190 nM |  |  |  | 
CCN(CC)Cc1cc(Nc2c3ccccc3nc3ccccc23)ccc1O [Compound 6, 4-(9-acridinylamino)-2-[(diethylamino)methyl]phenol] |  | 1640 ± 220 nM |  |  |  | 
CN(Cc1cc(Nc2ccnc3cc(I)ccc23)ccc1O)C(C)(C)C [Compound 33, 4-(7-iodoquinolin-4-ylamino)-2-tert-butylmethylaminomethylphenol] |  | 300 ± 40 nM | 108 | 300 nM | 32300 nM | 
CN(C)Cc1cc(Nc2ccnc3cc(I)ccc23)ccc1O [Compound 30, 4-(7-iodoquinolin-4-ylamino)-2-dimethylaminomethylphenol] |  | 690 ± 80 nM | >145 | 690 nM | > 100000 nM | 
CC(C)(C)NCc1cc(Nc2ccnc3cc(Cl)ccc23)ccc1O [Compound 9, 4-(7-chloroquinolin-4-ylamino)-2-tert-butylaminomethylphenol] |  | 1210 ± 90 nM | 22 | 1210 nM | 26100 nM | 
CCCCCCNCc1cc(Nc2ccnc3cc(Cl)ccc23)ccc1O [Compound 23, 4-(7-chloroquinolin-4-ylamino)-2-hexylaminomethylphenol] |  | 290 ± 30 nM | 18 | 290 nM | 5180 nM | 
CCN(CC)Cc1cc(Nc2ccnc3cc(Cl)ccc23)cc(-c2ccc(Cl)cc2)c1O [Compound 20, 6-(4-chlorophenyl)-4-(7-chloroquinolin-4-ylamino)-2-diethylaminomethylphenol] |  | 1310 ± 100 nM | 15 | 1310 nM | 19500 nM | 1.6 fold
CCN(CC)Cc1cc(Nc2ccnc3cc(C(F)(F)F)ccc23)ccc1O [Compound 2] |  | 5870 ± 1460 nM |  |  |  | 
CCN(CCO)Cc1cc(Nc2ccnc3cc(Cl)ccc23)ccc1O [Compound 17, 4-(7-chloroquinolin-4-ylamino)-2-[ethyl(2-hydroxyethyl)amino]methylphenol] | did not decrease potency | 1770 ± 180 nM |  |  |  | 
CCCCN(C)Cc1cc(Nc2ccnc3cc(Cl)ccc23)ccc1O [Compound 25, 4-(7-chloroquinolin-4-ylamino)-2-(butylmethylamino)methylphenol] |  | 860 ± 80 nM | 77 | 860 nM | 65900 nM | 
CCCN(C)Cc1cc(Nc2ccnc3cc(Cl)ccc23)ccc1O [Compound 14, 4-(7-chloroquinolin-4-ylamino)-2-(methylpropylamino)methylphenol] |  | 1220 ± 110 nM | >82 | 1220 nM | > 100000 nM | 
CCCCCN(C)Cc1cc(Nc2ccnc3cc(I)ccc23)ccc1O [Compound 36, 4-(7-iodoquinolin-4-ylamino)-2-methylpentylaminomethylphenol] |  | 370 ± 40 nM | >270 | 370 nM | > 100000 nM | 
CC(C)N(C)Cc1cc(Nc2ccnc3cc(I)ccc23)ccc1O [Compound 32, 4-(7-iodoquinolin-4-ylamino)-2-isopropylmethylaminomethylphenol] |  | 290 ± 40 nM | 132 | 290 nM | 38400 nM | 
CCN(C)Cc1cc(Nc2ccnc3cc(Cl)ccc23)ccc1O [Compound 16, 4-(7-chloroquinolin-4-ylamino)-2-(ethylmethylamino)methylphenol] |  | 2080 ± 220 nM |  |  |  | 
CCN(CC)Cc1cc(Nc2ccnc3cc(Br)ccc23)ccc1O [Compound 4, 4-(7-bromoquinolin-4-ylamino)-2-diethylamino-methylphenol] |  | 1550 ± 140 nM |  |  |  | 1.4 fold
CCCCCCN(C)Cc1cc(Nc2ccnc3cc(I)ccc23)ccc1O [Compound 37, 4-(7-iodoquinolin-4-ylamino)-2-hexylmethylaminomethylphenol] |  | 390 ± 20 nM | >256 | 390 nM | > 100000 nM | 
CCN(Cc1cc(Nc2ccnc3cc(Cl)ccc23)ccc1O)C(C)C [Compound 11, 4-(7-chloroquinolin-4-ylamino)-2-(ethylisopropylamino)methylphenol] |  | 1460 ± 150 nM | 41 | 1460 nM | 60500 nM | 
CCN(C)Cc1cc(Nc2ccnc3cc(I)ccc23)ccc1O [Compound 31, 4-(7-iodoquinolin-4-ylamino)-2-ethylmethylaminomethylphenol] |  | 620 ± 60 nM | >161 | 620 nM | > 100000 nM | 
Oc1ccc(Nc2ccnc3cc(I)ccc23)cc1CN1CCCC1 [Compound 42, 4-(7-iodoquinolin-4-ylamino)-2-(1-pyrrolidinylmethyl)phenol] |  | 660 ± 50 nM | 54 | 660 nM | 35300 nM | 
CCN(CC)Cc1cc(Nc2ccnc3ccccc23)ccc1O [Compound 12, 2-[(diethylamino)methyl]-4-(quinolin-4-ylamino)phenol] |  | 2140 ± 180 nM |  |  |  | 
Oc1ccc(Nc2ccnc3cc(Cl)ccc23)cc1CN1CC[C@@H](O)C1 [Compound 22] | did not decrease potency | 1730 ± 90 nM |  |  |  | 
CN(Cc1cc(Nc2ccnc3cc(Cl)ccc23)ccc1O)c1ccccc1 [Compound 3] | reduced antiviral activity | 6390 ± 930 nM |  |  |  | 
CN(C)Cc1cc(Nc2ccnc3cc(Cl)ccc23)ccc1O [Compound 10, 4-(7-chloroquinolin-4-ylamino)-2-dimethylaminomethylphenol] |  | 2140 ± 210 nM |  |  |  | 
CCN(CC)Cc1cc(Nc2ccnc3cc(F)ccc23)ccc1O [Compound 5, 4-(7-fluoroquinolin-4-ylamino)-2-diethylaminomethylphenol] | weaker than amiodiaquine | 2780 ± 280 nM |  |  |  | 
C=CCN(CC=C)Cc1cc(Nc2ccnc3cc(Cl)ccc23)ccc1O [Compound 27, 4-(7-chloroquinolin-4-ylamino)-2-bis(2-propen-1-yl)aminomethylphenol] |  | 2320 ± 320 nM |  |  |  | 
Oc1ccc(Nc2ccnc3cc(Cl)ccc23)cc1CN1CCOCC1 [Compound 24] |  | 6030 ± 410 nM |  |  |  | 
